Values after ≈ are worked out from the molar mass of the structure shown.
Assays:
Format in all cases: functional
[1] = tested on: Bacillus subtilis; test: Antimicrobial activity against Bacillus subtilis ATCC 6633 by MTT assay
[2] = tested on: Staphylococcus aureus; test: Antimicrobial activity against Staphylococcus aureus ATCC 6538 by MTT assay
[3] = tested on: Enterococcus faecalis; test: Antimicrobial activity against Streptococcus faecalis ATCC 9790 by MTT assay
[4] = tested on: Pseudomonas aeruginosa; test: Antimicrobial activity against Pseudomonas aeruginosa ATCC 13525 by MTT assay
[5] = tested on: Escherichia coli; test: Antimicrobial activity against Escherichia coli ATCC 35218 by MTT assay
[6] = tested on: Enterobacter cloacae; test: Antimicrobial activity against Enterobacter cloacae ATCC 13047 by MTT assay

SMILES	MIC [1] [µg/mL]	MIC [2] [µg/mL]	MIC [3] [µg/mL]	MIC [4] [µg/mL]	MIC [5] [µg/mL]	MIC [6] [µg/mL]
CC(=O)N1N=C(c2ccc(C)c(C)c2)CC1c1ccccc1Cl (centres undefined)	> 50	25 (≈ 76.5 µM)	50 (≈ 153 µM)	6.25 (≈ 19.1 µM)	25 (≈ 76.5 µM)	> 50
CC(=O)N1N=C(c2ccc(Cl)c(Cl)c2)CC1c1ccc(C)cc1 (centres undefined)	6.25 (≈ 18 µM)	> 50	12.5 (≈ 36 µM)	25 (≈ 72 µM)	> 50	25 (≈ 72 µM)
CC(=O)N1N=C(c2ccc(Cl)c(Cl)c2)CC1c1ccccc1Cl (centres undefined)	3.12 (≈ 8.5 µM)	25 (≈ 68 µM)	12.5 (≈ 34 µM)	12.5 (≈ 34 µM)	12.5 (≈ 34 µM)	25 (≈ 68 µM)
CC(=O)N1N=C(c2ccc(Cl)c(Cl)c2)CC1c1ccccc1 (centres undefined)	6.25 (≈ 18.8 µM)	> 50	12.5 (≈ 37.5 µM)	25 (≈ 75 µM)	12.5 (≈ 37.5 µM)	25 (≈ 75 µM)
COc1cc(OC)cc(C2CC(c3ccc(Cl)c(Cl)c3)=NN2C(C)=O)c1 (centres undefined)	12.5 (≈ 31.8 µM)	25 (≈ 63.6 µM)	50 (≈ 127 µM)	12.5 (≈ 31.8 µM)	> 50	12.5 (≈ 31.8 µM)
CC(=O)N1N=C(c2ccc(C)c(C)c2)CC1c1ccc(Cl)cc1 (centres undefined)	> 50	1.56 (≈ 4.78 µM)	50 (≈ 153 µM)	6.25 (≈ 19.1 µM)	12.5 (≈ 38.2 µM)	6.25 (≈ 19.1 µM)
CC(=O)N1N=C(c2ccc(C)c(C)c2)CC1c1ccc(Br)cc1 (centres undefined)	25 (≈ 67.3 µM)	12.6 (≈ 33.9 µM)	50 (≈ 135 µM)	12.5 (≈ 33.7 µM)	25 (≈ 67.3 µM)	3.12 (≈ 8.42 µM)
COc1cc(OC)cc(C2CC(c3ccc(C)c(C)c3)=NN2C(C)=O)c1 (centres undefined)	12.5 (≈ 35.5 µM)	> 50	12.5 (≈ 35.5 µM)	3.12 (≈ 8.87 µM)	> 50	25 (≈ 70.9 µM)
CC(=O)N1N=C(c2ccc(Cl)c(Cl)c2)CC1c1ccc(Cl)cc1 (centres undefined)	0.78 (≈ 2.12 µM)	25 (≈ 68 µM)	6.25 (≈ 17 µM)	25 (≈ 68 µM)	25 (≈ 68 µM)	> 50
CC(=O)N1N=C(c2ccc(C)c(C)c2)CC1c1ccc(C)cc1 (centres undefined)	12.5 (≈ 40.8 µM)	3.12 (≈ 10.2 µM)	12.5 (≈ 40.8 µM)	3.12 (≈ 10.2 µM)	> 50	> 50
COc1ccc(C2CC(c3ccc(C)c(C)c3)=NN2C(C)=O)cc1 (centres undefined)	12.5 (≈ 38.8 µM)	3.12 (≈ 9.69 µM)	12.5 (≈ 38.8 µM)	3.12 (≈ 9.69 µM)	25 (≈ 77.5 µM)	12.5 (≈ 38.8 µM)
CC(=O)N1N=C(c2ccc(C)c(C)c2)CC1c1ccccc1 (centres undefined)	> 50	25 (≈ 85.5 µM)	25 (≈ 85.5 µM)	12.5 (≈ 42.8 µM)	> 50	> 50
COc1ccc(C2CC(c3ccc(Cl)c(Cl)c3)=NN2C(C)=O)cc1 (centres undefined)	3.12 (≈ 8.6 µM)	25 (≈ 68.8 µM)	6.25 (≈ 17.2 µM)	12.5 (≈ 34.4 µM)	> 50	25 (≈ 68.8 µM)
CC(=O)N1N=C(c2ccc(Cl)c(Cl)c2)CC1c1ccc(Br)cc1 (centres undefined)	1.56 (≈ 3.79 µM)	> 50	3.12 (≈ 7.58 µM)	25 (≈ 60.7 µM)	12.5 (≈ 30.3 µM)	12.5 (≈ 30.3 µM)
COc1cc(OC)cc(C2CC(c3ccccc3F)=NN2C(C)=O)c1 (centres undefined)	6.25 (≈ 18.3 µM)	25 (≈ 73 µM)	12.5 (≈ 36.5 µM)	12.5 (≈ 36.5 µM)	12.5 (≈ 36.5 µM)	> 50
CC(=O)N1N=C(c2ccc(Br)cc2)CC1c1ccc(Br)cc1 (centres undefined)	12.5 (≈ 29.6 µM)	3.12 (≈ 7.4 µM)	25 (≈ 59.2 µM)	6.25 (≈ 14.8 µM)	25 (≈ 59.2 µM)	25 (≈ 59.2 µM)
CC(=O)N1N=C(c2ccc(Br)cc2)CC1c1ccc(C)cc1 (centres undefined)	25 (≈ 70 µM)	6.25 (≈ 17.5 µM)	50 (≈ 140 µM)	1.56 (≈ 4.37 µM)	25 (≈ 70 µM)	6.25 (≈ 17.5 µM)

Next, values leading:

MIC [1] [µg/mL]	MIC [2] [µg/mL]	MIC [3] [µg/mL]	MIC [4] [µg/mL]	MIC [5] [µg/mL]	MIC [6] [µg/mL]	SMILES
25 (≈ 80.5 µM)	1.56 (≈ 5.03 µM)	12.5 (≈ 40.3 µM)	6.25 (≈ 20.1 µM)	25 (≈ 80.5 µM)	12.5 (≈ 40.3 µM)	CC(=O)N1N=C(c2ccc(C)c(C)c2)CC1c1ccc(F)cc1 (centres undefined)
1.56 (≈ 4.45 µM)	12.5 (≈ 35.6 µM)	1.56 (≈ 4.45 µM)	12.5 (≈ 35.6 µM)	12.5 (≈ 35.6 µM)	12.5 (≈ 35.6 µM)	CC(=O)N1N=C(c2ccc(Cl)c(Cl)c2)CC1c1ccc(F)cc1 (centres undefined)
25 (≈ 88.6 µM)	25 (≈ 88.6 µM)	50 (≈ 177 µM)	12.5 (≈ 44.3 µM)	25 (≈ 88.6 µM)	12.5 (≈ 44.3 µM)	CC(=O)N1N=C(c2ccccc2)CC1c1ccc(F)cc1 (centres undefined)
25 (≈ 72.8 µM)	> 50	12.5 (≈ 36.4 µM)	25 (≈ 72.8 µM)	12.5 (≈ 36.4 µM)	12.5 (≈ 36.4 µM)	CC(=O)N1N=C(c2ccccc2)CC1c1ccc(Br)cc1 (centres undefined)
> 50	> 50	6.25 (≈ 22.5 µM)	12.5 (≈ 44.9 µM)	25 (≈ 89.8 µM)	25 (≈ 89.8 µM)	CC(=O)N1N=C(c2ccccc2)CC1c1ccc(C)cc1 (centres undefined)
> 50	12.5 (≈ 42.5 µM)	50 (≈ 170 µM)	12.5 (≈ 42.5 µM)	> 50	> 50	COc1ccc(C2CC(c3ccccc3)=NN2C(C)=O)cc1 (centres undefined)
25 (≈ 83.7 µM)	> 50	25 (≈ 83.7 µM)	25 (≈ 83.7 µM)	> 50	25 (≈ 83.7 µM)	CC(=O)N1N=C(c2ccccc2)CC1c1ccccc1Cl (centres undefined)
